# Measurements taken from patent EP1101492A1, “NOVEL REMEDIES FOR ALLERGIC DISEASES” (FUJI YAKUHIN KOGYO KABUSHIKI KAISHA, priority 1998, dated 2000).
# Legend:
# [1] = system: guinea pig experimental bronchial asthma models; assay: Experimental bronchial asthma model (ovalbumin inhalation): airway resistance and asthmatic death;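 as to all read-outs here: female Std:Hartley guinea pigs sensitized by inhaling nebulized ovalbumin once daily for 8 consecutive days, 8 to 11 animals per group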; settings: test compounds 15 mg/kg s.c. (Compound No. 114: 30 mg/kg), prednisolone 10 mg/kg orally; for % Survival: asthmatic death within several minutes after elicitation, water for injection 54.5, 0.5% methyl cellulose 66.7; for % Amelioration in Airway Resistance, 1 Hour after Elicitation / % Amelioration in Airway Resistance, 6 Hours after Elicitation / % Amelioration in Airway Resistance, Immediately after Elicitation: 24 and 2 hours prior to elicitation, vs solvent control
# [2] = system: mouse experimental atopic dermatitis models; assay: Auricle edema in experimental atopic dermatitis model (anti-DNP IgE sensitization, DNFB elicitation); type: in vivo, Balb/c mice; settings: test compounds 60 mg/kg s.c., prednisolone 10 mg/kg i.p.; for % Inhibition IPR: auricle edema 1 hour post-elicitation; for % Inhibition IPR / % Inhibition LPR: once a day, 24 & 2 hours prior to DNFB-elicitation, vs untreated group; for % Inhibition LPR: auricle edema Day 1 post-elicitation; for % Inhibition vLPR: auricle edema Day 7 post-elicitation
# Procedure: Intravenous injection of an anti-2,4-dinitrophenol (DNP) antibody (anti-DNP Ab, monoclonal IgE Ab; its antibody titer was 1 : 512 to 1 : 1024 by a rat heterologous passive cutaneous anaphylaxis reaction using a Wister rat) into a tail vein of female Balb/c mice (7-week old, body weight: 17 to 20 g, purchased from JAPAN SLC, Inc.) at a dose of […] per animal raised passive sensitization. Twenty four hours post-sensitization, 0.1% 2,4-dinitrofluorobenzene (DNFB; Nacalai Tesque, Inc.) in ethanol was painted onto both sides of a pair of mouse auricles at a dose of 10µL per each side for elicitation.
# Fresh unsensitized mice were painted with 0.1% DNFB in ethanol onto their ear in the same manner as aforementioned and served as a control group. Not only immediately prior to elicitation but also 1 hour, 5 hours, daily between Days 1 and 14, and on Day 16 post-elicitation, ear thickness was measured using a dial thickness gauge (Peacock Co.). Each degree of auricle edemas was calculated: Auricular Edema (µm)=(Ear Thickness Post-Elicitation, µm) - (Ear Thickness immediately prior to Elicitation, µm) [formula]
# Balb/c mice were passively sensitized with anti-DNP IgE Ab in the same manner as in Example 1. Twenty four hours later, 0.1% DNFB in ethanol was painted onto both sides of a pair of mouse auricles at a dose of 10 µL per each side for elicitation.
# Immediately prior to elicitation, 1 hour and on Day 1 post-elicitation, auricle thickness was measured in the same manner as in Example 1. Each therapeutic efficacy is recorded as a percent inhibition wherein the "auricle edema (untreated group)" is used as a control. Auricle Edema Inhibition (%) = [ 1 -(Auricle Edema (Treated Group))/(Auricle Edema (Untreated Group))] × 100 (%) [formula]
# Immediately prior to elicitation, and on Day 7 post-elicitation, auricle thickness was similarly measured. Each therapeutic efficacy is recorded as a percent inhibition wherein the auricle edema in the untreated group is used as a control.
# Immediately prior to elicitation, and on Day 7 post-elicitation, auricle thickness was similarly measured. Each therapeutic efficacy is recorded as a percent inhibition wherein the auricle edema (untreated group) is used as a control.
# Immediately prior to elicitation, at 1 and 4 hours and on Days 1, 3 and 7 post-elicitation, auricle thickness was similarly measured. From each auricle edema (µm) based on the auricle thickness immediately prior to elicitation, especially a prophylactically therapeutic efficacy of the test compound was evaluated.
# Immediately prior to elicitation, at 0.5, 1 and 4 hours and on Days 1, 3 and 7 post-elicitation, auricle thickness was similarly measured. Each amount of auricle edemas was calculated (average± standard deviation).
# Body weight gain in mice = settings: test compounds 60 mg/kg s.c., prednisolone 10 mg/kg i.p., once a day for 6 days (Days 0-5), average ± standard deviation; for Body Weight Gain, Observation Day 5: non-administered 0.50± 0.23; for Body Weight Gain, Observation Day 7: non-administered 0.80± 0.48; for Body Weight Gain, Observation Day 10: non-administered 1.07± 0.58
# Procedure: Accordingly, for assessing the side-effect each of the following test compounds an action on body weight gains was examined.
# Next the mice were measured for their body weight. Each body weight gain was calculated on Days 5, 7 and 10 post-administration based on the body weight just prior to administration.
# [3] = daily from 3 to 6 days after DNFB-elicitation
# [4] = daily from 1 day prior to through 5 days after DNFB-elicitation
Structure (SMILES),% Survival [1] [%],"% Amelioration in Airway Resistance, 1 Hour after Elicitation [1] [%]","% Amelioration in Airway Resistance, 6 Hours after Elicitation [1] [%]","% Amelioration in Airway Resistance, Immediately after Elicitation [1] [%]",% Inhibition IPR [2] [%],% Inhibition LPR [2] [%],"% Inhibition vLPR [2, 3] [%]","% Inhibition vLPR [2, 4] [%]","Body Weight Gain, Observation Day 5 (Body weight gain in mice)","Body Weight Gain, Observation Day 7 (Body weight gain in mice)","Body Weight Gain, Observation Day 10 (Body weight gain in mice)"
"CC(=O)O.CNC(=O)[C@H](Cc1ccc(NC(=N)N)cc1)NC(=O)[C@@H](CC(=O)NO)CC(C)C [Compound No. 121, N-[4-(N-Hydroxyamino)-2(R)-isobutylsuccinyl]-L-4'-guanidophenylalanine-N-methylamide 1 acetate]",88.9,56.4,102.2,,,,,,,,
"CNC(=O)[C@H](CCCCN)NC(=O)[C@H](CC(C)C)C(CCCc1ccc(C(=O)OC)cc1)C(=O)NO (single isomer, unassigned) [Compound No. 65, N^a-[4-(Hydroxyamino)-2(R)-isobutyl-3(R or S)-[3-(p-methoxycarbonylphenyl)propyl]succinyl]-L-lysine N-methylamide · 1 acetate]",87.5,22.3,63.6,29.9,,,,,,,
"CC(=O)O.CNC(=O)[C@H](Cc1ccc(CNC(C)=N)cc1)NC(=O)[C@H](CC(C)C)[C@H](CCCc1ccccc1)C(=O)NO [Compound No. 126, N-[4-(N-Hydroxyamino)-2(R)-isobutyl-3(S)-(3-phenyltrimethylene)succinyl]-L-4'-acetimidoyliminomethylenephenyl alanine-N-methylamide · 1 acetate]",,,,,38.2,39.2,44.7,,,,
"CNC(=O)C(CCCNC(=N)N)NC(=O)C(CC(C)C)C(Cc1ccc(CN2C(=O)c3ccccc3C2=O)cc1)C(=O)NO (single isomer, unassigned) [Compound No. 51, N^a-[4-(Hydroxyamino)-2(R)-isobutyl-3(R or S)-(p-phthalimidomethylbenzyl)succinyl]-L-arginine N-methylamide · 1 acetate]",70.0,59.1,56.3,30.1,,,,,,,
"CNC(=O)[C@H](Cc1ccc(CN)cc1)NC(=O)[C@H](CC(C)C)[C@@H](CCCc1ccccc1)C(=O)NO.Cl [Compound No. 128, N-[4-(N-Hydroxyamino)-2(R)-isobutyl-3(R)-(3-phenylpropyl)succinyl)-L-4'-aminomethylphenylalanine-N-methylamide · 1 hydrochloride]",72.7,53.2,49.4,,,,,,,,
"CC(=O)O.CNC(=O)[C@H](Cc1ccc(CNC(C)=N)cc1)NC(=O)[C@H](CC(C)C)[C@H](O)C(=O)NO [Compound No. 43, N^a-[4-(Hydroxyamino)-2(R)-isobutyl-3(S)-hydroxysuccinyl]-4'-acetimidoyliminomethyl-L-phenylalanine N-methylamide · 1 acetate]",,,,,38.2,39.2,43.6,,,,
"CC(=N)N=Cc1ccc(C[C@H](NC(=O)[C@H](CC(C)C)C(CC(C)C)C(=O)NO)C(=O)NCCN(C)C)cc1.CC(=O)O.CC(=O)O (single isomer, unassigned) [Compound No. 90, N^a-[4-(Hydroxyamino)-2(R),3(R or S)-diisobutylsuccinyl]-4'-acetimidoyliminomethyl-L-phenylalanine N-(2-N',N'-dimethylaminoethyl)amide · 2 acetate]",,,,,,,,20.6,,,
"CC(=O)O.CC(C)C[C@H](C(=O)NO)[C@@H](CC(C)C)C(=O)N[C@@H](Cc1ccc(CN)cc1)C(=O)NCCC(=O)O [Compound No. 127, N-[4-(N-Hydroxyamino)-2(R),3(S)-diisobutylsuccinyl]-L-4'-aminomethylphenylalaninyl-β-alanine · 1 acetate]",70.0,20.8,55.2,21.9,47.8,41.1,20.6,46.7,,,
"CNC(=O)C(CCCCNC(C)=N)NC(=O)C(CC(C)C)C(C)C(=O)NO (racemic) [Compound No. 22, N^a-[4-(Hydroxyamino)-2(R)-isobutyl-3(RS)-methylsuccinyl]-N^e-acetimidoyl-L-lysine N-methylamide · 1 acetate]",,,,,52.7,33.1,49.5,,0.97± 0.31,0.80± 0.39,1.20± 0.53
"CC(=N)NCc1ccc(CC(NC(=O)C(CC(C)C)C(CC(C)C)C(=O)NO)C(=O)NCCO)cc1 (racemic) [Compound No. 91, N^a-[4-(Hydroxyamino)-2(R),3(RS)-diisobutylsuccinyl]-4'-acetimidoyliminomethyl-L-phenylalanine N-(2-hydroxyethyl)amide · 2 acetate]",,,,,,43.0,,,1.28± 0.37,1.55± 0.48,1.30± 0.54
"CNC(=O)C(CCCN)NC(=O)C(CC(C)C)C(CCCc1ccc(NC(=N)N)cc1)C(=O)NO (racemic) [Compound No. 46, N^a-[4-(Hydroxyamino)-2(R)-isobutyl-3(RS)-[3-(4'-guanidinophenyl)propyl]succinyl]-L-ornithine-N-methylamide · 2 acetate]",,,,,,46.7,,27.5,1.08± 0.22,1.57± 0.33,1.33± 0.32
